In ChEMBL document CHEMBL1909046, “DrugMatrix in vitro pharmacology data” one finds IC50 and Ki data, which are given here for 23 compounds.

In series [1] the target is Beta-3 adrenergic receptor (Homo sapiens, UniProt P13945). The series is described as follows: DRUGMATRIX: Adrenergic beta3 radioligand binding (ligand: [125I] Cyanopindolol). It counts as cell membranes, HEK293, Membrane. Conditions: Not Active = under 50% inhibition at 10 µM.
Series [2] has as its target T1, C-C chemokine receptor type 4 (Homo sapiens, UniProt P51679). Further: in other assays of this panel Not Active means under 50% inhibition at 10 µM.
T1 sequence (P51679 whole entry): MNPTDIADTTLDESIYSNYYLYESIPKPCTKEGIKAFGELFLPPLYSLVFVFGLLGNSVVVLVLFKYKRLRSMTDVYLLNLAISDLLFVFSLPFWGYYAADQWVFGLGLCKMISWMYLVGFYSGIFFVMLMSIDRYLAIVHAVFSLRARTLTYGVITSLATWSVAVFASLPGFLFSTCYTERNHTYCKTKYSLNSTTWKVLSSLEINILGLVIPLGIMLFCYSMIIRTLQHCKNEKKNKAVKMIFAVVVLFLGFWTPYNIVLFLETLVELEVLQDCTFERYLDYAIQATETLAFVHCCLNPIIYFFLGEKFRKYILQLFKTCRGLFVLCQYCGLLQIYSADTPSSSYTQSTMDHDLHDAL
It counts as cell membranes, Membrane. Conditions: chem-1.

For series [3], the target named is Sodium-dependent dopamine transporter (Homo sapiens, UniProt Q01959). Nature of the series: DRUGMATRIX: Dopamine Transporter radioligand binding (ligand: [125I] RTI-55). It counts as cell membranes, CHO-K1, Membrane. The conditions noted are these: cho-k1; Not Active = under 50% inhibition at 10 µM.
Series [4] has as its target T2, Cysteinyl leukotriene receptor 1 (Homo sapiens, UniProt Q9Y271). Further: in other assays of this panel Not Active means under 50% inhibition at 10 µM.
T2 sequence (Q9Y271 whole entry): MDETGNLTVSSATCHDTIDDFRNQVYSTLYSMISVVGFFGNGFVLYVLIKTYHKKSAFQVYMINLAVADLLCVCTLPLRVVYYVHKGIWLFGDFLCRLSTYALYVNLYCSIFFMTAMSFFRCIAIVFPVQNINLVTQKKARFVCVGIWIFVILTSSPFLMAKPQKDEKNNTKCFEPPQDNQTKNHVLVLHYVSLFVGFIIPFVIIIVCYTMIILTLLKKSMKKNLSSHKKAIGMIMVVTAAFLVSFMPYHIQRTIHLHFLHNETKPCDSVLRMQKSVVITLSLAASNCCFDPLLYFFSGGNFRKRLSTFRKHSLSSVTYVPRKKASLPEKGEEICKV
It counts as cell membranes, Membrane. Conditions: cho-k1.

Series [5] in a line: DRUGMATRIX: Potassium Channel [KATP] radioligand binding (ligand: [3H] Glyburide). It counts as cell membranes, Membrane. Conditions: hit-t15; Not Active = under 50% inhibition at 10 µM.
Series [6] concerns the target Epidermal growth factor receptor (Homo sapiens, UniProt P00533). The series is described as follows: DRUGMATRIX: Protein Tyrosine Kinase, EGF Receptor enzyme inhibition (substrate: Poly(Glu:Tyr)). It counts as cell-based, Insect cells. The conditions noted are these: Not Active = under 50% inhibition at 10 µM.
In the next series the target is Cytochrome P450 2C9 (Homo sapiens, UniProt P11712). The conditions noted are these: bti-tn-5b1-4. Further: in other assays of this panel Not Active means under 50% inhibition at 10 µM.
Chain of Cytochrome P450 2C9 (P11712 whole entry): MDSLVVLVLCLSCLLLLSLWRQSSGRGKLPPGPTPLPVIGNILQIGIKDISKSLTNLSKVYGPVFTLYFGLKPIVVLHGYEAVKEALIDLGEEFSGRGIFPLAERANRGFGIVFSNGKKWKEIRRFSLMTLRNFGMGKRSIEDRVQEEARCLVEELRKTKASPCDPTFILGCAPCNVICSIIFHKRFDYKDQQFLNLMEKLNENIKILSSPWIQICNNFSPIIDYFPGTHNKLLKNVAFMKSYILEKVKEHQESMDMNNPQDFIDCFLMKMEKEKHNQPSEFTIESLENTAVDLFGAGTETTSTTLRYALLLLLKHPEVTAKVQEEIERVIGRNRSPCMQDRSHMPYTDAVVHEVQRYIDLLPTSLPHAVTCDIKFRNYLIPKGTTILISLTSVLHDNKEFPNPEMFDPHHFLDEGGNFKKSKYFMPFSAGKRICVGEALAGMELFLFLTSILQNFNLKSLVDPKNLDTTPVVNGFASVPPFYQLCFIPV

Chain of Beta-3 adrenergic receptor (P13945 whole entry): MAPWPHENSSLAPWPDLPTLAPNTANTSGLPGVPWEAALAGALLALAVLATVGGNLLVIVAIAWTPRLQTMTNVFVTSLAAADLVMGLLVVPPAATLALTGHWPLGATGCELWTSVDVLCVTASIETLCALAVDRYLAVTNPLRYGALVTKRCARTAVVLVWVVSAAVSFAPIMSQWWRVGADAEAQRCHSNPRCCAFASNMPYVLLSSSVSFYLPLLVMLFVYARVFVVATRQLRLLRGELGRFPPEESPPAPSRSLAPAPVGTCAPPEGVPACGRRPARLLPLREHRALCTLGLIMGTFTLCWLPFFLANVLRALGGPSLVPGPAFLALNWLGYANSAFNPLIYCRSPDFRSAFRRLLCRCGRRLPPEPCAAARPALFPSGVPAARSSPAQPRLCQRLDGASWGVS
Chain of Sodium-dependent dopamine transporter (Q01959 whole entry): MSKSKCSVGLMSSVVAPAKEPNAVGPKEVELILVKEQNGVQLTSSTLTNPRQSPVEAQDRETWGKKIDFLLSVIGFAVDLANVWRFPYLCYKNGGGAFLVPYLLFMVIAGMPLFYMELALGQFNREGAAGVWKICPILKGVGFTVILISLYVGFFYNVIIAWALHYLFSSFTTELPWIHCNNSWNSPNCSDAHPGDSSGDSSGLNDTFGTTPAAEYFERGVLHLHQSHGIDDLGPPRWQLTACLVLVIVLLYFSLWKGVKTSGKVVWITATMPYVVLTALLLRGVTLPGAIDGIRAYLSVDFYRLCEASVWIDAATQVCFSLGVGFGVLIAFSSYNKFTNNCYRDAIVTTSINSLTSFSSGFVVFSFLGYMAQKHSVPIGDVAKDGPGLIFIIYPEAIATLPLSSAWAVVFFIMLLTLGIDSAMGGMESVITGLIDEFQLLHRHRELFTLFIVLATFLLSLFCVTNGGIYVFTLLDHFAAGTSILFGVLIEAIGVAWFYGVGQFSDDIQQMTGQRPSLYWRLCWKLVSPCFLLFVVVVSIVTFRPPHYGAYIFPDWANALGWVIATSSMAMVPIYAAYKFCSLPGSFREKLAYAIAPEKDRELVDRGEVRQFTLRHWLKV
Chain of Epidermal growth factor receptor (P00533 whole entry): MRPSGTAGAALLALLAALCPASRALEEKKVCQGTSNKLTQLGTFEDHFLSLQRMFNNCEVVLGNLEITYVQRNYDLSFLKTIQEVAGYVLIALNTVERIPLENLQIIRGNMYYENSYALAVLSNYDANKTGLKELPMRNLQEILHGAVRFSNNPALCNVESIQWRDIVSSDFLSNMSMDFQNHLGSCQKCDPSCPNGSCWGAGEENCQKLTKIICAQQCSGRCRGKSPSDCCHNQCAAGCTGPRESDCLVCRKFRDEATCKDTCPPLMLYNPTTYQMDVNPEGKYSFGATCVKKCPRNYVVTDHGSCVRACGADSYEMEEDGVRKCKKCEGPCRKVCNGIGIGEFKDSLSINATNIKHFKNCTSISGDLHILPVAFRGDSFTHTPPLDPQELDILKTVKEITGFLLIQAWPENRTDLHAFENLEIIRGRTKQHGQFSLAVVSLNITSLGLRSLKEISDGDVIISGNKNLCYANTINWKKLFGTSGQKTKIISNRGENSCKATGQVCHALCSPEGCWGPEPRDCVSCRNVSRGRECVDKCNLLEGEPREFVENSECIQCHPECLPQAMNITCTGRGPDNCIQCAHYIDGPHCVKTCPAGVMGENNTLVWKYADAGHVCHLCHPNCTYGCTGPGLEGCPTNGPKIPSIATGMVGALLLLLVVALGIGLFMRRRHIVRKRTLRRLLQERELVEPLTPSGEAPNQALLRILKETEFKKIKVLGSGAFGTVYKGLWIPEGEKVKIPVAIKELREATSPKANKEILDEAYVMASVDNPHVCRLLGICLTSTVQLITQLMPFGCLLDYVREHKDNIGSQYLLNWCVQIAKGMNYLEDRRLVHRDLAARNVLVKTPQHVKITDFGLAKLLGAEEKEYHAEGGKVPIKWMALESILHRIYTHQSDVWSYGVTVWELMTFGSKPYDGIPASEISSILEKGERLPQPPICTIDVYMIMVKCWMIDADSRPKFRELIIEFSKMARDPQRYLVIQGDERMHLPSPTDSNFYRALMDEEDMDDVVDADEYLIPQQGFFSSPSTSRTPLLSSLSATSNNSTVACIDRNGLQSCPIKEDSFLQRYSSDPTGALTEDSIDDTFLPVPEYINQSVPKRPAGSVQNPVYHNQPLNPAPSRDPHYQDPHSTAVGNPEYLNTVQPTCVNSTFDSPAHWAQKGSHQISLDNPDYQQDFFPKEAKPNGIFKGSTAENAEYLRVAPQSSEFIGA

Turning to `CCCCC(=O)N(Cc1ccc(-c2ccccc2-c2nnn[nH]2)cc1)[C@H](C(=O)O)C(C)C`, the IC50 entry in series [1] (hek293), in series [2], in series [3], in series [4], in series [5] and in series [6] (insect cells) was “Not Active” each time. In addition, at Cytochrome P450 2C9, the IC50 entry is given as “Not Active”. The Ki entry (in series [5]; on Cytochrome P450 2C9) was “Not Active” throughout.

As for `O=C(O)COc1ccc(C(=O)c2cccs2)c(Cl)c1Cl`, the IC50 entry in series [1] (hek293), in series [2], in series [3], in series [4], in series [5] and in series [6] (insect cells) was “Not Active” throughout. For the same compound, the IC50 entry against Cytochrome P450 2C9 is reported as “Not Active”. Further, the Ki entry (in series [5]; on Cytochrome P450 2C9) was “Not Active” throughout.

As to `CN1[C@@H]2CC[C@H]1C[C@@H](OC(c1ccccc1)c1ccccc1)C2` [BENZTROPINE], the IC50 entry (in series [1] (hek293); in series [2]; in series [4]; in series [6] (insect cells); against Cytochrome P450 2C9) was “Not Active” in each case. Besides, the Ki result on Cytochrome P450 2C9 was “Not Active”.

Regarding `C[C@@](Cc1ccc(O)c(O)c1)(NN)C(=O)O.O` [CARBIDOPA], the IC50 result in series [1] (hek293), in series [2], in series [3], in series [4], in series [5] and in series [6] (insect cells) was “Not Active” each time. Besides, the IC50 entry against Cytochrome P450 2C9 is “Not Active”. Also, the Ki entry (in series [5]; at Cytochrome P450 2C9) was “Not Active” each time.

On to `CN1CCN(C2=Nc3cc(Cl)ccc3Nc3ccccc32)CC1` [CLOZAPINE], for which the IC50 result (in series [1] (hek293); in series [2]; in series [4]; in series [6] (insect cells); on Cytochrome P450 2C9) was “Not Active” in each case. Also, the Ki result at Cytochrome P450 2C9 is “Not Active”.

As to `CC(C)NC[C@@H](O)COc1cccc2ccccc12` [DEXPROPRANOLOL], the IC50 entry (in series [1] (hek293); in series [2]; in series [4]; in series [6] (insect cells); at Cytochrome P450 2C9) was “Not Active” throughout. In addition, on Cytochrome P450 2C9, the Ki entry was “Not Active”.

Regarding `CC(C)NC[C@H](O)COc1cccc2ccccc12` [LEVOPROPRANOLOL], the IC50 result (in series [2]; in series [4]; in series [6] (insect cells); at Cytochrome P450 2C9) was “Not Active” each time. Also, the Ki entry at Cytochrome P450 2C9 is recorded as “Not Active”.

For `O=C(O)CCCCC1CCSS1` (stereo not drawn) [LIPOIC ACID, ALPHA], the IC50 result in series [1] (hek293), in series [2], in series [3], in series [4], in series [5] and in series [6] (insect cells) was “Not Active” each time. Besides, the IC50 entry at Cytochrome P450 2C9 is given as “Not Active”. Besides, the inhibition constant (Ki) entry (in series [5]; on Cytochrome P450 2C9) was “Not Active” each time.

As to `CN(C)C(=O)C(CCN1CCC(O)(c2ccc(Cl)cc2)CC1)(c1ccccc1)c1ccccc1` [LOPERAMIDE], the IC50 entry (in series [2]; in series [4]; in series [6] (insect cells); against Cytochrome P450 2C9) was “Not Active” in each case. In addition, the Ki entry on Cytochrome P450 2C9 is “Not Active”.

In the case of `Clc1ccc(COC(Cn2ccnc2)c2ccc(Cl)cc2Cl)c(Cl)c1` (configuration not stated) [MICONAZOLE], the IC50 in series [1] (read-out: IC50) is 5.48 µM; in series [2], “Not Active”; in series [4] it was “Not Active”; in series [6] (read-out: IC50), 29.3 µM. Moreover, the Ki in series [1] (read-out: Ki) came out at 4.11 µM.

Turning to `Oc1ccc2c3c1O[C@H]1[C@@H](O)CC[C@@]4(O)[C@@H](C2)N(CC2CCC2)CC[C@]314` [NALBUPHINE], the IC50 result in series [1] (hek293), in series [2], in series [3], in series [4] and in series [6] (insect cells) was “Not Active” each time.

`C[C@]12C=CC(=O)C=C1CC[C@@H]1[C@@H]2C(=O)C[C@@]2(C)[C@H]1CC[C@]2(O)C(=O)CO` [PREDNISONE]: the IC50 entry in series [1] (hek293), in series [2], in series [3], in series [4], in series [5] and in series [6] (insect cells) was “Not Active” in each case. In series [5], the Ki entry is “Not Active”.

For the compound `OCCOCCN1CCN(C2=Nc3ccccc3Sc3ccccc32)CC1` [QUETIAPINE], the IC50 result (in series [1] (hek293); in series [2]; in series [3]; in series [4]; in series [6] (insect cells); on Cytochrome P450 2C9) was “Not Active” in each case. For the same compound, the Ki result at Cytochrome P450 2C9 was “Not Active”.

`COC(=O)[C@H]1[C@H]2C[C@@H]3c4[nH]c5cc(OC)ccc5c4CCN3C[C@H]2C[C@@H](OC(=O)c2cc(OC)c(OC)c(OC)c2)[C@@H]1OC` [RESERPINE]: the IC50 result in series [1] (hek293), in series [2], in series [3], in series [4], in series [5] and in series [6] (insect cells) was “Not Active” throughout. The IC50 entry against Cytochrome P450 2C9 was “Not Active”. The Ki entry (in series [5]; at Cytochrome P450 2C9) was “Not Active” in each case.

Turning to `O=C(O)c1ccccc1O` [SALICYLIC ACID], the IC50 entry in series [1] (hek293), in series [2], in series [3], in series [4], in series [5] and in series [6] (insect cells) was “Not Active” each time. On Cytochrome P450 2C9, the IC50 entry is “Not Active”. In addition, the Ki entry (in series [5]; at Cytochrome P450 2C9) was “Not Active” in each case.

Turning to `C[S+]([O-])c1ccc(-c2nc(-c3ccncc3)c(-c3ccc(F)cc3)[nH]2)cc1` (configuration not stated) [SB-203580], the IC50 entry in series [1] (hek293), in series [2], in series [3] and in series [4] was “Not Active” throughout.

Take `CC1CCC(NC(=O)N(CCCl)N=O)CC1` (configuration not stated) [SEMUSTINE]: the IC50 result in series [1] (hek293), in series [2], in series [3], in series [4], in series [5] and in series [6] (insect cells) was “Not Active” each time. Besides, the IC50 result against Cytochrome P450 2C9 is listed as “Not Active”. Moreover, the Ki entry (in series [5]; on Cytochrome P450 2C9) was “Not Active” each time.

Consider `O=C1C[C@@H]2OCC=C3CN4CC[C@]56c7ccccc7N1[C@H]5[C@H]2[C@H]3C[C@H]46` [STRYCHNINE], for which the IC50 entry in series [1] (hek293), in series [2], in series [3], in series [4], in series [5] and in series [6] (insect cells) was “Not Active” in each case. In addition, the Ki entry in series [5] is “Not Active”.

`C[N+](C)(C)CCOC(=O)CCC(=O)OCC[N+](C)(C)C.[Cl-].[Cl-]` [SUCCINYLCHOLINE CHLORIDE]: the IC50 result in series [1] (hek293), in series [2], in series [3], in series [4], in series [5] and in series [6] (insect cells) was “Not Active” each time. On Cytochrome P450 2C9, the IC50 entry is listed as “Not Active”. Further, the Ki entry (in series [5]; on Cytochrome P450 2C9) was “Not Active” throughout.

Consider `Nc1ccc(S(=O)(=O)NC(=O)c2ccccc2)cc1` [SULFABENZAMIDE], for which the IC50 result in series [1] (hek293), in series [2], in series [3], in series [4], in series [5] and in series [6] (insect cells) was “Not Active” in each case. The IC50 entry on Cytochrome P450 2C9 was “Not Active”. Besides, the Ki entry (in series [5]; on Cytochrome P450 2C9) was “Not Active” in each case.

Take `CCCCCCCCNC(C)C(O)c1ccc(SC(C)C)cc1` (configuration not stated) [SULOCTIDIL]: the IC50 result in series [2] is “Not Active”; in series [4] it was “Not Active”; in series [5] it was “Not Active”; in series [6] (read-out: IC50), 0.794 µM; against Cytochrome P450 2C9, “Not Active”. Further, the Ki result (in series [5]; on Cytochrome P450 2C9) was “Not Active” each time.

As for `O=c1[nH]c(=O)n(C2CCCO2)cc1F` (configuration not stated) [TEGAFUR], the IC50 entry in series [1] (hek293), in series [2], in series [3], in series [4], in series [5] and in series [6] (insect cells) was “Not Active” each time. Further, the IC50 result against Cytochrome P450 2C9 is given as “Not Active”. For the same compound, the Ki entry (in series [5]; on Cytochrome P450 2C9) was “Not Active” throughout.

As for `CN1CCN(CCCN2c3ccccc3Sc3ccc(C(F)(F)F)cc32)CC1` [TRIFLUOPERAZINE], the IC50 entry in series [1] (hek293), in series [3], in series [4], in series [5] and in series [6] (insect cells) was “Not Active” throughout. In addition, the Ki result in series [2] and in series [5] was “Not Active” each time.

As a reminder, the IC50 is the concentration that gives 50% inhibition. Usually Ki stands for a measure of affinity in units of concentration, obtained from inhibition or displacement.
